Test results taken from ChEMBL document CHEMBL1201862, “PubChem BioAssay data set” (2004).
Active and inactive are the calls of the source.

How the values were obtained:
[1] = cytotoxicity toward DRD oncogenic fibroblasts, dose response, cell-based, non-viral oncogenic, luminescence (AID 1934); type: functional; details: Homo sapiens
[2] = Luminescence Cell-Based Dose Confirmation HTS to Identify Inhibitors of Platelet Dense Granule Release. [Related pubchem assays: 1663 (Primary HTS), 1678 (Summary of Project)]; type: functional
[3] = cytotoxicity in HEK-293T NF-kB-Luc cells, dose response, cytotoxicity control for B/T-cell NF-kB inhibitor project, cell-based, uHTS hits (AID 489019); type: functional;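 note: IC50 reflects cytotoxicity as loss of cell viability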
[4] = HEK293 cell cytotoxicity, dose response, cytotoxicity control, plate reader, cherry-picked samples (AID 743446); type: functional, cell-based
[5] = off-target signal loss in HeLa-CEM21 co-culture – HeLa F-luc CTL cells, cherry-picked, counter-screen for HIV-1 Env fusion inhibitor project, dose response (AID 652040); type: functional, cell-based;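 note: potency for signal decrease marking cytotoxic or nonspecific inhibition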
[6] = system: BJ; test: cells; type: functional, cell-based; details: Homo sapiens
[7] = A549 cell cytotoxicity, dose response, cytotoxicity control, plate reader, cherry-pick, antagonist series (AID 743412); type: functional, cell-based
[8] = HepG2 cell cytotoxicity, dose response, cytotoxicity control, plate reader, cherry-pick, antagonist series (AID 743416); type: functional, cell-based
[9] = MC4R antagonists, dose response, counter-screen for LGR2 antagonist project, cell-based, plate reader, cherry pick (AID 743444); type: functional;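 note: transfected HEK 293 cells stimulated with alpha-MSH peptide; potency of inhibitors of the alpha-MSH evoked signal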
[10] = system: BJ; test: cytotoxicity toward BJ-TERT-LT-ST fibroblasts, dose response, cell-based, RAS-independent, luminescence (AID 1935); type: functional; details: Homo sapiens;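 note: BJ fibroblasts immortalized with TERT plus LT and ST oncogenes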
[11] = ZM109 Env clade C HIV-1 fusion inhibitors, dose response, HeLa effector, CEM target cells, luciferase, cherry-pick (AID 652058); type: functional, cell-based
[12] = inhibitors of clade B AD8 Env fusion, dose response, cell-based, cherry-pick (AID 652062); type: functional;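 note: luciferase signal from cell-cell fusion driven by HIV-1 clade B AD8 Env; potency is for inhibitors of fusion seen as a drop in luminescence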
[13] = HepG2 cell cytotoxicity, dose response, cytotoxicity control for Shn3 inhibitor project, CellTiter-Glo, cherry-picked (AID 624134); type: functional, cell-based
[14] = system: Jurkat; test: antigen receptor-induced NF-kB inhibitors, dose response, Jurkat, luciferase reporter, luminescence, B- and T-cell (AID 489004); type: functional, cell-based; details: Homo sapiens;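 note: NF-kB luciferase reporter Jurkat cells stimulated with PMA plus ionomycin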
[15] = CEM21 lymphoblast cell cytotoxicity, dose response, cytotoxicity control for viral fusion inhibitor project, CellTiter-Glo luminescence, cherry-picked (AID 652042); type: functional, cell-based;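 note: potency for signal decrease meaning cytotoxicity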
[16] = Shn3 3'UTR reporter inhibitors, dose response, cell-based, Clone20 osteoblasts, firefly luciferase, cherry-picked (AID 624132); type: functional;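 note: firefly luciferase luminescence from reporter carrying the Shn3 3'UTR in osteoblasts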
[17] = inhibitors of HIV Env-driven cell fusion, dose response, cherry-pick (AID 652057); type: functional, cell-based
[18] = biological target: Luciferin 4-monooxygenase (Photinus pyralis, UniProt P08659); test: firefly luciferase enzyme inhibitors, dose response, biochemical, luminescence (AID 1891)
Chain of Luciferin 4-monooxygenase (P08659 whole entry): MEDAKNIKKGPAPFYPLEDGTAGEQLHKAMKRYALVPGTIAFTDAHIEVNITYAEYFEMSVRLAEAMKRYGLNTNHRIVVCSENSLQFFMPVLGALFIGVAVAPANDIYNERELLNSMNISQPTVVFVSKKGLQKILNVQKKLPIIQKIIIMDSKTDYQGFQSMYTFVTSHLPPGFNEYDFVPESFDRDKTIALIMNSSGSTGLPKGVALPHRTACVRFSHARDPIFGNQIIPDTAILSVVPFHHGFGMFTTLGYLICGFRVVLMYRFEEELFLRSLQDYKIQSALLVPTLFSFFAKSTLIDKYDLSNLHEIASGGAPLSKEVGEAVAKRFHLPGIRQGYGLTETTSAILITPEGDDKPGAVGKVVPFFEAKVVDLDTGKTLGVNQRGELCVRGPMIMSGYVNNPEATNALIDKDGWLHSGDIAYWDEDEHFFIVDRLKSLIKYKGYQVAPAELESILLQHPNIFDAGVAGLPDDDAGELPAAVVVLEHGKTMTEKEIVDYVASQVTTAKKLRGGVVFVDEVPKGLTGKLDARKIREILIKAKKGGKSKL

[19] = LGR2 antagonists, dose response, cell-based, HEK293, CRE-luciferase reporter, cherry pick, set 2 (AID 743343); type: functional;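 note: transfected cells were stimulated with diluted bursicon conditioned medium after compound addition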
[20] = system: BJ; test: cytotoxicity toward BJ-TERT fibroblasts, dose response, cell-based, RAS-independent, luminescence (AID 1933); type: functional; details: Homo sapiens
[21] = system: BJ; test: cytotoxicity toward Ras-transformed BJeLR fibroblasts, dose response, cell-based, alamar blue fluorescence, cherrypicked samples (AID 2631); type: functional; details: Homo sapiens;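 note: confirmatory dose-response assay in RAS-dependent BJ fibroblasts engineered with TERT, LT and ST, with cytotoxicity read by fluorescence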
[22] = biological target: T1, Mitochondrial peptide methionine sulfoxide reductase (Bos taurus, UniProt P54149); test: Absorbance-based biochemical high throughput dose response assay for activators of Methionine sulfoxide reductase A (MsrA).; type: functional
T1 sequence (P54149 whole entry): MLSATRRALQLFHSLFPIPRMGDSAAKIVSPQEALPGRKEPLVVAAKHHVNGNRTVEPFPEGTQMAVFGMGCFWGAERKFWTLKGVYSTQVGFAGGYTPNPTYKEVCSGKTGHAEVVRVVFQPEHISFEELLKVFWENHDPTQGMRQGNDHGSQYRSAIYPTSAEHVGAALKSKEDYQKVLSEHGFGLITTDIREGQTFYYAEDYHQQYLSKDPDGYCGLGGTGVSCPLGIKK

[23] = biological target: Melanocortin receptor 4 (Homo sapiens, UniProt P32245); type: functional, cell-based;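 note: Cell-based assay with luminescence read-out, confirmatory dose-response testing for agonist activity of biased ligands at MC4R; human U2OS cells with tagged receptor and beta-arrestin; potency of agonists that increase receptor coupling to beta-arrestin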
Chain of Melanocortin receptor 4 (P32245 whole entry): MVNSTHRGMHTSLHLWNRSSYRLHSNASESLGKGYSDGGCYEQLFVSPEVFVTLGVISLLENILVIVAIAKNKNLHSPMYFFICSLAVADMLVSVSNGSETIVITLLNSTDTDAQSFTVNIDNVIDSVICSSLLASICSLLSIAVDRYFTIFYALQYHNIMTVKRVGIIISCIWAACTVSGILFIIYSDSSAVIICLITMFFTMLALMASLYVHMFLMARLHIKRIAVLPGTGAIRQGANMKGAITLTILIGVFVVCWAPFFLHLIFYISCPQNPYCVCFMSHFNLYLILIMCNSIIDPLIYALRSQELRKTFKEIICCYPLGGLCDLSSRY

[24] = system: H9c2; test: cells; type: functional, cell-based; details: Rattus norvegicus, H9c2, Myocardium;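 note: confirmatory concentration-response retest of ultra-high-throughput screening hits for modulation of myocardial damage; cell death induced by hydrogen peroxide oxidative stress; compound pretreatment for 60 min then peroxide exposure for 2 h; potency is for protecting the cells against peroxide damage rather than for killing them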

In the case of `COc1ccc(-c2cc3nc(C)n(N)c(=O)c3s2)cc1`, the EC50 [1] is reported as 2.15 µM (active), the EC50 [2] is reported as 443 nM (active) and the IC50 [3] is reported as > 80 µM (inactive). For the same molecule, the AC50 [4] was 3.01 µM (active), the AC50 [5] was 2.33 µM (active) and the EC50 [6] was 2.27 µM (active). For the same molecule, the AC50 [7] was 3.1 µM (active), the AC50 [8] was 3.72 µM (active) and the AC50 [9] was 289 nM (active). For the same molecule, the EC50 [10] was 10.6 µM (active), the AC50 [11] was 8.99 µM (active) and the AC50 [12] was 1.51 µM (active). For the same molecule, the AC50 [13] was 4.71 µM (active), the IC50 [14] was 470 nM (active) and the AC50 [15] was 4.71 µM (active). For the same molecule, the AC50 [16] was 1.13 µM (active), the AC50 [17] was 950 nM (active) and the EC50 [18] was 263 nM (active). For the same molecule, the AC50 [19] was 260 nM (active), the EC50 [20] was 3.64 µM (inconclusive) and the EC50 [21] was > 133 µM (inactive).

For `Cc1nc2c(nc1C)C(=O)c1ccccc1C2=O`, the EC50 [22] was 95.6 µM (inactive).

For `COc1cccc(-c2cnc3c(NC=O)cc(-c4cccc(C(=O)N(C)C)c4)cn23)c1`, the EC50 [23] was > 89.2 µM (inactive) and the IC50 [24] was > 79 µM (inactive).

In the case of `COc1cccc(-c2cnc3c(NC(C)=O)cc(-c4cc(F)ccc4OC)cn23)c1`, the EC50 [23] is reported as > 89.2 µM (inactive).

In the case of `COc1ccccc1-c1cc(NC=O)c2ncc(-c3ccc(F)cc3)n2c1`, the EC50 [23] is reported as > 9.91 µM (active).
